Reference: PubChem BioAssay AID1259407 (Chemical Carcinogenesis Research Information System (CCRIS), 2018)
The source made the active and inactive calls. The rule behind the calls is not given here.

Tested on: CCRIS mutagenicity, Ames/micronucleus/aberration tests
Assay: CCRIS mutagenicity studies
[1] = Test System: AMES SALMONELLA TYPHIMURIUM, Strain/Indicator: TA98, Metabolic Activation: NONE, Method: PREINCUBATION
[2] = Test System: AMES SALMONELLA TYPHIMURIUM, Strain/Indicator: TA100, Metabolic Activation: NONE, Method: PREINCUBATION
[3] = Test System: AMES SALMONELLA TYPHIMURIUM, Strain/Indicator: TA1535, Metabolic Activation: NONE, Method: PREINCUBATION
[4] = Test System: AMES SALMONELLA TYPHIMURIUM, Strain/Indicator: TA1537, Metabolic Activation: NONE, Method: PREINCUBATION
[5] = Test System: AMES SALMONELLA TYPHIMURIUM, Strain/Indicator: TA100, Metabolic Activation: NONE, Method: STANDARD PLATE
[6] = Test System: AMES SALMONELLA TYPHIMURIUM, Strain/Indicator: TA98, Metabolic Activation: NONE, Method: STANDARD PLATE

CC(C)(C)c1ccc(OCC2CO2)cc1 (configuration not stated)
mutagenic call (Test System: AMES SALMONELLA TYPHIMURIUM, Strain/Indicator: TA98, Metabolic Activation: HAMSTER, LIVER, S-9, AROCLOR 1254 (30%), Method: PREINCUBATION): inactive; negative
mutagenic call [1]: inactive; negative
mutagenic call (Test System: AMES SALMONELLA TYPHIMURIUM, Strain/Indicator: TA98, Metabolic Activation: RAT, LIVER, S-9, AROCLOR 1254 (30%), Method: PREINCUBATION): inactive; negative
mutagenic call (Test System: AMES SALMONELLA TYPHIMURIUM, Strain/Indicator: TA100, Metabolic Activation: HAMSTER, LIVER, S-9, AROCLOR 1254 (30%), Method: PREINCUBATION): inactive; negative
mutagenic call [2]: active; positive
mutagenic call (Test System: AMES SALMONELLA TYPHIMURIUM, Strain/Indicator: TA100, Metabolic Activation: RAT, LIVER, S-9, AROCLOR 1254 (30%), Method: PREINCUBATION): inactive; negative
mutagenic call (Test System: AMES SALMONELLA TYPHIMURIUM, Strain/Indicator: TA1535, Metabolic Activation: HAMSTER, LIVER, S-9, AROCLOR 1254 (30%), Method: PREINCUBATION): inactive; negative
mutagenic call [3]: inactive; negative
mutagenic call (Test System: AMES SALMONELLA TYPHIMURIUM, Strain/Indicator: TA1535, Metabolic Activation: RAT, LIVER, S-9, AROCLOR 1254 (30%), Method: PREINCUBATION): inactive; negative
mutagenic call (Test System: AMES SALMONELLA TYPHIMURIUM, Strain/Indicator: TA1537, Metabolic Activation: HAMSTER, LIVER, S-9, AROCLOR 1254 (30%), Method: PREINCUBATION): inactive; negative
mutagenic call [4]: inactive; negative
mutagenic call (Test System: AMES SALMONELLA TYPHIMURIUM, Strain/Indicator: TA1537, Metabolic Activation: RAT, LIVER, S-9, AROCLOR 1254 (30%), Method: PREINCUBATION): inactive; negative

CC(=O)ON(OCc1ccc(Oc2ccccc2)cc1)C(=O)c1ccccc1
mutagenic call [5]: active; positive
mutagenic call (Test System: AMES SALMONELLA TYPHIMURIUM, Strain/Indicator: TA100, Metabolic Activation: RAT, S-9, AROCLOR, Method: STANDARD PLATE): active; positive

c1ccc2c(c1)Oc1ccccc1S2
mutagenic call (Test System: AMES SALMONELLA TYPHIMURIUM, Strain/Indicator: TA97, Metabolic Activation: HAMSTER, LIVER, S-9, AROCLOR 1254 (10 OR 30%), Method: PREINCUBATION): inactive; negative
mutagenic call (Test System: AMES SALMONELLA TYPHIMURIUM, Strain/Indicator: TA97, Metabolic Activation: NONE, Method: PREINCUBATION): inactive; negative
mutagenic call (Test System: AMES SALMONELLA TYPHIMURIUM, Strain/Indicator: TA97, Metabolic Activation: RAT, LIVER, S-9, AROCLOR 1254 (10 OR 30%), Method: PREINCUBATION): inactive; negative
mutagenic call (Test System: AMES SALMONELLA TYPHIMURIUM, Strain/Indicator: TA98, Metabolic Activation: HAMSTER, LIVER, S-9, AROCLOR 1254 (10 OR 30%), Method: PREINCUBATION): inactive; negative
mutagenic call [1]: inactive; negative
mutagenic call (Test System: AMES SALMONELLA TYPHIMURIUM, Strain/Indicator: TA98, Metabolic Activation: RAT, LIVER, S-9, AROCLOR 1254 (10 OR 30%), Method: PREINCUBATION): inactive; negative
mutagenic call (Test System: AMES SALMONELLA TYPHIMURIUM, Strain/Indicator: TA100, Metabolic Activation: HAMSTER, LIVER, S-9, AROCLOR 1254 (10 OR 30%), Method: PREINCUBATION): inactive; negative
mutagenic call [2]: inactive; negative
mutagenic call (Test System: AMES SALMONELLA TYPHIMURIUM, Strain/Indicator: TA100, Metabolic Activation: RAT, LIVER, S-9, AROCLOR 1254 (10 OR 30%), Method: PREINCUBATION): inactive; negative
mutagenic call (Test System: AMES SALMONELLA TYPHIMURIUM, Strain/Indicator: TA1535, Metabolic Activation: HAMSTER, LIVER, S-9, AROCLOR 1254 (10 OR 30%), Method: PREINCUBATION): inactive; negative
mutagenic call [3]: inactive; negative
mutagenic call (Test System: AMES SALMONELLA TYPHIMURIUM, Strain/Indicator: TA1535, Metabolic Activation: RAT, LIVER, S-9, AROCLOR 1254 (10 OR 30%), Method: PREINCUBATION): inactive; negative

Cc1ccccc1OP(=O)(Oc1ccccc1)Oc1ccccc1
mutagenic call (Test System: AMES SALMONELLA TYPHIMURIUM, Strain/Indicator: TA98, Metabolic Activation: HAMSTER, LIVER, S-9, AROCLOR 1254 (10%), Method: PREINCUBATION): inactive; negative
mutagenic call [1]: inactive; negative
mutagenic call (Test System: AMES SALMONELLA TYPHIMURIUM, Strain/Indicator: TA98, Metabolic Activation: RAT, LIVER, S-9, AROCLOR 1254 (10%), Method: PREINCUBATION): inactive; negative
mutagenic call (Test System: AMES SALMONELLA TYPHIMURIUM, Strain/Indicator: TA100, Metabolic Activation: HAMSTER, LIVER, S-9, AROCLOR 1254 (10%), Method: PREINCUBATION): inactive; negative
mutagenic call [2]: inactive; negative
mutagenic call (Test System: AMES SALMONELLA TYPHIMURIUM, Strain/Indicator: TA100, Metabolic Activation: RAT, LIVER, S-9, AROCLOR 1254 (10%), Method: PREINCUBATION): inactive; negative
mutagenic call (Test System: AMES SALMONELLA TYPHIMURIUM, Strain/Indicator: TA1535, Metabolic Activation: HAMSTER, LIVER, S-9, AROCLOR 1254 (10%), Method: PREINCUBATION): inactive; negative
mutagenic call [3]: inactive; negative
mutagenic call (Test System: AMES SALMONELLA TYPHIMURIUM, Strain/Indicator: TA1535, Metabolic Activation: RAT, LIVER, S-9, AROCLOR 1254 (10%), Method: PREINCUBATION): inactive; negative
mutagenic call (Test System: AMES SALMONELLA TYPHIMURIUM, Strain/Indicator: TA1537, Metabolic Activation: HAMSTER, LIVER, S-9, AROCLOR 1254 (10%), Method: PREINCUBATION): inactive; negative
mutagenic call [4]: inactive; negative
mutagenic call (Test System: AMES SALMONELLA TYPHIMURIUM, Strain/Indicator: TA1537, Metabolic Activation: RAT, LIVER, S-9, AROCLOR 1254 (10%), Method: PREINCUBATION): inactive; negative

CNC(=O)/C=C(\C)OP(=O)(OC)OC
mutagenic call (End Point: In vitro chromosomal aberrations, Test System: Human lymphocytes, Metabolic Activation: None): active; positive (structural changes and ploidy)
mutagenic call (Test System: AMES SALMONELLA TYPHIMURIUM, Strain/Indicator: TA97A, Metabolic Activation: NONE, Method: STANDARD PLATE): inactive; negative
mutagenic call (Test System: AMES SALMONELLA TYPHIMURIUM, Strain/Indicator: TA97A, Metabolic Activation: PLANT, HOMOGENATE, S-14, Method: STANDARD PLATE): inactive; negative
mutagenic call (Test System: AMES SALMONELLA TYPHIMURIUM, Strain/Indicator: TA97A, Metabolic Activation: S-9, Method: STANDARD PLATE): inactive; negative
mutagenic call [6]: inactive; negative
mutagenic call (Test System: AMES SALMONELLA TYPHIMURIUM, Strain/Indicator: TA98, Metabolic Activation: PLANT, HOMOGENATE, S-14, Method: STANDARD PLATE): inactive; negative
mutagenic call (Test System: AMES SALMONELLA TYPHIMURIUM, Strain/Indicator: TA98, Metabolic Activation: S-9, Method: STANDARD PLATE): inactive; negative
mutagenic call [5]: inactive; negative
mutagenic call (Test System: AMES SALMONELLA TYPHIMURIUM, Strain/Indicator: TA100, Metabolic Activation: PLANT, HOMOGENATE, S-14, Method: STANDARD PLATE): inactive; negative
mutagenic call (Test System: AMES SALMONELLA TYPHIMURIUM, Strain/Indicator: TA100, Metabolic Activation: S-9, Method: STANDARD PLATE): inactive; negative
mutagenic call (Test System: AMES SALMONELLA TYPHIMURIUM, Strain/Indicator: TA1535, Metabolic Activation: PLANT, HOMOGENATE, S-14, Method: STANDARD PLATE): inactive; negative
mutagenic call (Test System: AMES SALMONELLA TYPHIMURIUM, Strain/Indicator: TA1535, Metabolic Activation: S-9, Method: STANDARD PLATE): inactive; negative
mutagenic call (Test System: UDS HUMAN FIBROBLASTS, Strain/Indicator: THY INCORP (NON-S-PHASE), Metabolic Activation: NONE, Method: LIQUID SCINTILLATION COUNTING): active; positive

OC[C@H]1O[C@@H](n2cnc3c(=S)nc[nH]c32)[C@H](O)[C@@H]1O
mutagenic call [6]: inactive; negative
mutagenic call [5]: active; positive
mutagenic call (Test System: AMES SALMONELLA TYPHIMURIUM, Strain/Indicator: TA102, Metabolic Activation: NONE, Method: STANDARD PLATE): inactive; negative
mutagenic call (Test System: AMES SALMONELLA TYPHIMURIUM, Strain/Indicator: TA1537, Metabolic Activation: NONE, Method: STANDARD PLATE): inactive; negative
mutagenic call (Test System: E. COLI, Strain/Indicator: WP2 (HCR), Metabolic Activation: NONE, Method: STANDARD PLATE): inactive; negative

O=c1nc(NNCCO)ccn1[C@@H]1O[C@H](CO)[C@@H](O)[C@H]1O
mutagenic call (Test System: CHINESE HAMSTER V-79, Strain/Indicator: V-79/6-THIOGUANINE, Metabolic Activation: NONE, Method: REPLATING): active; positive
